Experimental data taken from US20070154393A1, “Bioassay for volatile low molecular weight insecticides and methods of use” (priority 2005, published 2007).
“Also recorded” adds a separate entry of the source. Where a name gives a salt, the structure may show the parent alone. Read-outs that look alike come from different tables or passages of the source.

What was measured:
[1] = system: Rd1 (Rdl-R) strain of Drosophila (GABA-gated chloride channel point mutation); assay type: in vivo, Drosophila melanogaster
Text: (§1) Four Drosophila strains were used, all obtained from the Bloomington Drosophila Stock Center (Indiana University; Bloomington, Ind.). The Canton-S strain was used as the insecticide-susceptible standard. The Hikone-R strain is metabolically-resistant with elevated cytochrome P450 levels (Waters et al., 1984; Sundseth et al., 1989; Le Goff et al., 2003; Festucci-Buselli et al., 2005). Hikone-R is resistant to a number of insecticides, including malathion, DDT and neonicotinoids (Sundseth et al., 1989; Daborn et al., 2001). Two resistant neurological-mutant strains were also tested. […] Flies were reared in 100-ml vials capped with acetate plugs (Fisher Scientific; Suwanee, Ga.) on a commercial diet (JAZZ-MIX; Fisher Scientific). Flies were reared on a 12:12 photocycle at 24° C. and 60% relative humidity. Mixed-sex adults, less than 1-wk old, were used in bioassays.
(§2) All experimental materials were purchased from Sigma-Aldrich-Fluka (Milwaukee, Wis.) and were of 99% purity or greater. […] All volatile insecticide stocks were prepared at 100 μg/μl in analytical grade acetone. Rather than weigh the highly volatile liquid insecticides (i.e., all compounds except benzothiophene), weight was determined based on the density-volume relationship of each compound. Four serial dilutions were prepared and tested for each insecticide as described previously (Scharf et al., 2006). The insecticide synergists PBO (piperonyl butoxide) and DEF (SSS-tributyl-phosphoro-trithioate) were obtained from Fluka Chemical Co. (Basel, Switzerland) and Mobay Chemical Co. (Kansas City, Mo.). Both synergists were >95% purity. Synergist stocks were prepared at 100 μg/ml in analytical grade acetone.
(§3) Volatility bioassays were conducted exactly as described in a previous report (Scharf et al., 2006). Briefly, bioassays took place in 0.5-l glass jars with metal lids. Mixed-sex flies were isolated from lab colonies and placed in 4-ml dram vials in groups of ten, along with a dried piece of laboratory diet. The dram vials were capped with open-top septum caps that were covered with fine mesh (held in place by non-toxic glue). For bioassays, the assembled dram vials were placed into the 0.5-l jars along with a folded filter paper “tent” (Whatman #1; Vineland, N.J.). The filter paper was treated with either an insecticide dilution or acetone, the jar was sealed with the metal lid, and the bioassay proceeded for 24-hr at room temperature. Mortality was scored based on a complete lack of movement by the flies. Four concentrations plus an acetone control were tested for all insecticides. Between five and ten replicates were performed for each concentration range on each strain-insecticide combination. Synergist bioassays were performed with a slight modification. Synergist stocks were applied to dram vials at 100 μl per vial to provide assay concentrations of 10 μg per vial. […] After treatment, vials were held at an angle in a fume hood and rotated ¼-turn each minute until the acetone evaporated. Flies and diet were added as above and held for 1-hr. Assays were initiated, run, and scored as above.
(§4) Probit analysis was performed using PROC PROBIT in the SAS software package (SAS Institute; Cary, N.C.). If control mortality ever exceeded 10% in a given replicate, that replicate was discarded. Toxicity and synergist ratios at LC50 were compared statistically using the calculation described by Robertson and Preisler (1992). Using this procedure, ratios with 95% confidence intervals were calculated using a spreadsheet-based program. With this calculation, if confidence intervals include 1.0 then ratios are considered non-significant (p>0.05; Robertson and Preisler, 1992).

[2] = system: para-ts1 (para-R) strain of Drosophila (sodium channel point mutation); assay type: in vivo; conditions: significance at p<0.05, method of Robertson and Preisler
Experimental: (§5) Four Drosophila strains were used, all obtained from the Bloomington Drosophila Stock Center (Indiana University; Bloomington, Ind.). The Canton-S strain was used as the insecticide-susceptible standard. […] Two resistant neurological-mutant strains were also tested. […] Flies were reared in 100-ml vials capped with acetate plugs (Fisher Scientific; Suwanee, Ga.) on a commercial diet (JAZZ-MIX; Fisher Scientific). […] Mixed-sex adults, less than 1-wk old, were used in bioassays.
(§6) All volatile insecticide stocks were prepared at 100 μg/μl in analytical grade acetone. Rather than weigh the highly volatile liquid insecticides (i.e., all compounds except benzothiophene), weight was determined based on the density-volume relationship of each compound. […] The insecticide synergists PBO (piperonyl butoxide) and DEF (SSS-tributyl-phosphoro-trithioate) were obtained from Fluka Chemical Co. (Basel, Switzerland) and Mobay Chemical Co. (Kansas City, Mo.). […] Synergist stocks were prepared at 100 μg/ml in analytical grade acetone.
(§7) Briefly, bioassays took place in 0.5-l glass jars with metal lids. Mixed-sex flies were isolated from lab colonies and placed in 4-ml dram vials in groups of ten, along with a dried piece of laboratory diet. The dram vials were capped with open-top septum caps that were covered with fine mesh (held in place by non-toxic glue). For bioassays, the assembled dram vials were placed into the 0.5-l jars along with a folded filter paper “tent” (Whatman #1; Vineland, N.J.). The filter paper was treated with either an insecticide dilution or acetone, the jar was sealed with the metal lid, and the bioassay proceeded for 24-hr at room temperature. Mortality was scored based on a complete lack of movement by the flies. Four concentrations plus an acetone control were tested for all insecticides. Between five and ten replicates were performed for each concentration range on each strain-insecticide combination. Synergist bioassays were performed with a slight modification. Synergist stocks were applied to dram vials at 100 μl per vial to provide assay concentrations of 10 μg per vial. […] After treatment, vials were held at an angle in a fume hood and rotated ¼-turn each minute until the acetone evaporated. Flies and diet were added as above and held for 1-hr. Assays were initiated, run, and scored as above.
(§8) Probit analysis was performed using PROC PROBIT in the SAS software package (SAS Institute; Cary, N.C.). If control mortality ever exceeded 10% in a given replicate, that replicate was discarded.

[3] = system: metabolically-resistant Hikone-R strain of Drosophila (elevated cytochrome P450); assay type: in vivo
Experimental: as §5, §6, §7, §8

[4] = system: insecticide-susceptible Canton-S strain of Drosophila; assay type: in vivo
Experimental: as §2, §3, §4

[5] = system: metabolically resistant Hikone-R strain of Drosophila; assay type: in vivo; conditions: Hikone, FIG. 6
Experimental: as §2, §3, §4

[6] = system: insecticide-susceptible Drosophila melanogaster (Canton-S strain); assay type: in vivo; conditions: in vivo
Experimental: The insecticide-susceptible Canton-S strain of Drosophila was obtained from the Bloomington Drosophila stock center (Indiana University, Bloomington, Ind.), and used exclusively in all studies. Flies were reared in 100-ml vials capped with acetate plugs (Fisher Scientific; Suwannee, Ga.) on a JAZZ-MIX diet (Fisher) prepared with a 2:1 ratio of water to apple juice. Flies were reared on a 12:12 photocycle at 24° C. and ambient relative humidity. Mixed-sex adults, less than 1-wk old, were used in bioassays.
Flies were briefly anesthetized in rearing vials with a pulse of CO2 and transferred to a CO2 flowbed (Genesee Scientific; San Diego, Calif.). Using a camel hair brush and a 5×5 cm sheet of rice paper, ten flies were placed into 7.0 ml dram vials. Prior to adding flies, each vial received a 0.5 cm^3 block of rearing diet that had been sufficiently dried on a paper towel to remove excessive moisture. The vials were then capped with open-top septum caps (Fisher) that were covered with fine mesh. The mesh was applied to the septum caps in advance using hot glue; it prevented fly escape but readily permitted gas exchange. The flies were allowed 1-hr to recover from the CO2 anesthesia. After one hour, single vials with flies were placed into 0.5 L glass jars, along with a filter paper tent (see FIG. 1). In a fume hood, filter paper tents were treated with insecticide dilutions or acetone for controls. The jars were then rapidly closed tightly with a metal lid. After 24 hours of exposure, mortality was scored with the aid of a magnifying glass.
All test compounds and solvents were >99% purity, and were purchased from Sigma-Aldrich Chemical (Milwaukee, Wis.). See Table 1 for a listing of the test compounds and their structures. Insecticide stock solutions were prepared at a standard concentration of 100 μg/μl in analytical grade acetone. For liquid insecticidal compounds, density in mg/μl was used to calculate weight on a per-volume basis. Stock solutions were held at −20° C. in sealed amber vials. In bioassay jars, filter paper tents were treated with stock volumes ranging from 2 to 20 μl, depending on the inherent toxicity of the test compound. These volumes of insecticide stock provided test concentrations of 200 to 2000 μg insecticide per replicate jar. A range of 4-5 concentrations plus a control were tested for each insecticide, and each range was repeated five times over at least three days. Controls received a volume of acetone identical to the highest insecticide volume that was tested (i.e., 10 μl for menthofuran; 20 μl for all other insecticides). Between uses, bioassay jars and lids were washed in a dishwasher, then baked 12-16 hr at 90° C. in a drying oven.
Probit and regression analyses were performed using the PROC PROBIT and PROC REG procedures, respectively. […] If control mortality ever exceeded 10% in a given replicate, that replicate was discarded.
as §1

[7] = Table 3, Hikone-R, no synergist, 24 hr
[8] = significance at p<0.05, method of Robertson and Preisler

SMILES | response of Rd1 relative to Canton-S (LC50 ratio, FIG. 7A), in words ([1]; in vivo) | response of para-ts1 relative to Canton-S (LC50 ratio, FIG. 7B), in words [2] | Slope ± Std. Error (probit mortality line) ([3]; Table 2, Hikone-R, 24 hr) | Slope ± Std. Error (probit mortality line) [3, 7] | response of Hikone-R relative to Canton-S (LC50 ratio Hikone÷Canton, FIG. 5), in words [3, 8] | further results
Cc1coc2c1CC[C@H](C)C2 [Menthofuran, menthofuran] | significantly enhanced susceptibility | enhanced susceptibility | 4.12 ± 0.45 | 4.12 ± 0.45 | – | response of Hikone-R relative to Canton-S (LC50 ratio Hikone÷Canton, FIG. 5), in words ([3]; significance at p<0.05, method of Robertson and Preisler, listed as mentho-): significantly enhanced susceptibility; response of Hikone-R relative to Canton-S (LC50 ratio Hikone÷Canton, FIG. 5), in words ([3]; significance at p<0.05, method of Robertson and Preisler, listed as menthofuran): significantly more susceptible; also recorded: greater susceptibility; also recorded: enhanced susceptibility; efficacy level when mixed with the P450 inhibitor PBO ([4]; 'levels on the same scale' as MITC and DDVP): < 100 µg/L; effect of PBO treatment on toxicity, in words ([4]; Canton-S, FIG. 6): increased menthofuran toxicity; effect of PBO treatment on toxicity, in words [5]: no effects
c1ccc2sccc2c1 [Benzothiophene, benzothiophene] | significantly enhanced susceptibility | enhanced susceptibility | 4.42 ± 0.46 | 4.42 ± 0.46 | significantly enhanced susceptibility; also recorded: greater susceptibility | –
CC(C)(C)OC=O [t-Butyl Formate, tert-butyl formate] | significant resistance; also recorded: significant tolerance | elevated tolerance; also recorded: significant tolerance | 44.70 | 44.70 | non-significant tolerance | LC50 (95% CL) [6]: 1981.0 (1917.0 − 2048.4) μg/jar
CCCCCCOC=O [Hexyl Formate, hexyl formate] | non-significant tolerance | non-significant tolerance | 3.26 ± 0.65 | 3.26 ± 0.65 | non-significant tolerance | –
CCCCOC=O [Butyl Formate, butyl formate] | – | non-significant tolerance | – | – | – | LC50 ([1]; in vivo): 1246.0 μg insecticide per 0.5 liter of headspace; response of Rd1 relative to Canton-S (LC50 ratio, FIG. 7A), in words [1, 8]: non-significant tolerance; LC50 ([3]; in vivo): 1570.0 μg insecticide per 0.5 liter of headspace; Slope ± Std. Error (probit mortality line) ([3]; in vivo): 8.82 ± 2.00
CCCCCCCOC=O [Heptyl Formate, heptyl formate] | – | – | – | – | – | LC50 ([1]; in vivo): 1656.6 μg insecticide per 0.5 liter of headspace; response of Rd1 relative to Canton-S (LC50 ratio, FIG. 7A), in words [1, 8]: non-significant tolerance; LC50 ([3]; in vivo): 1483.0 μg insecticide per 0.5 liter of headspace; response of Hikone-R relative to Canton-S (LC50 ratio Hikone÷Canton, FIG. 5), in words ([3]; in vivo): non-significant tolerance
CCCOC=O [Propyl Formate, propyl formate] | significant resistance | non-significant tolerance | 7.43 ± 1.26 | 7.43 ± 1.26 | – | LC50 (95% CL) [6]: 1833.0 (1787.0 − 1884.0) μg/jar
